Earlier results, collected in US20080077374A1, “Method for predicting biological, biochemical, biophysical or pharmacological characteristics of a substance” (priority 2006, published 2008).
Like-named read-outs stand apart in the source and are kept apart here.

Key:
[1] = system: male Sprague Dawley rats; conditions: for Diagnosis cc: clinical chemistry; for Diagnosis histo: histopathology; for Main target: main toxicity target; for observed severity of histological lesions: liver, labelled by COMET1 study number
[2] = system: HanWistar rats; conditions: HanWistar rats (study R12)
[3] = SpragueDawley rats, refinement of the principal toxicity

| Molecule | Diagnosis cc ([1]; SpragueDawley rats) | Diagnosis histo ([1]; SpragueDawley rats) | Main target ([1]; SpragueDawley rats) | observed severity of histological lesions [1] | 2nd toxicity ([1]; rat, in vivo) | Subclass/Indication ([1]; SpragueDawley rats) | Tox class ([1]; SpragueDawley rats, highest dose level, pathology at 48 h post dose, assumed organ toxicity class) | 2nd toxicity [1, 3] | 2nd toxicity [2] | Subclass/Indication [2] | Diagnosis cc ([2]; clinical chemistry) | Diagnosis histo ([2]; histopathology) | Main target ([2]; main toxicity target) |
| --- | --- | --- | --- | --- | --- | --- | --- | --- | --- | --- | --- | --- | --- |
| S=C=Nc1cccc2ccccc12 [ANIT] | + | 2bil | Hepatotoxic | no or minimal liver lesions |  |  |  |  |  |  |  |  |  |
| CC(=O)Nc1nnc(S(N)(=O)=O)s1 [Acetazolamide] |  |  |  |  | Papilla |  |  |  |  |  |  |  |  |
| Cl.N [Ammonium Chloride] | + | 0 | Kidney |  |  | Non-Toxic | ntx | Metabolic |  |  |  |  |  |
| CCOC(=O)C(C)(C)Oc1ccc(Cl)cc1 [Clofibrate] | + | 9sub | Hepatotoxic | no or minimal liver lesions | Peroxisome | Toxicant |  |  |  |  |  |  |  |
| CN(C)N=O [Di-methylnitrosamin] | + | 2 | Hepatotoxic | marked liver lesions |  | Toxicant |  | Direct reaction |  |  |  |  |  |
| NN [Hydrazine] | + | 7 | Hepatotoxic |  |  | Toxicant |  | Steatosis | Steatosis | Toxicant | + | 7 | Hepatotoxic |
| O=C(O)/C=C\C(=O)O [Maleic acid] |  |  |  |  | Proximal |  |  |  |  |  |  |  |  |
| [Cl][Hg][Cl] [Mercury Chloride] | + | 3 | Nephrotoxic |  |  | Toxicant |  | Proximal |  |  |  |  |  |
| CN(Cc1cnc2nc(N)nc(N)c2n1)c1ccc(C(=O)N[C@@H](CCC(=O)O)C(=O)O)cc1 [Methotrexate] | − | 1hea | Hemotoxic |  | Liver & kidney | Toxicant |  |  |  |  |  |  |  |
| CO[C@@]12[C@H](COC(N)=O)C3=C(C(=O)C(C)=C(N)C3=O)N1C[C@@H]1N[C@@H]12 [Mitomycin] |  | 1hae |  |  | Tubules, blood |  |  |  |  |  |  |  |  |
| CNC=O [N-methylformamid] | + | 2 | Hepatotoxic |  |  | Toxicant |  | Direct reaction |  |  |  |  |  |
| CN[C@H](CC(C)C)C(=O)N[C@H]1C(=O)N[C@@H](CC(N)=O)C(=O)N[C@H]2C(=O)N[C@H]3C(=O)N[C@H](C(=O)N[C@H](C(=O)O)c4cc(O)cc(O)c4-c4cc3ccc4O)[C@H](O)c3ccc(c(Cl)c3)Oc3cc2cc(c3O[C@@H]2O[C@H](CO)[C@@H](O)[C@H](O)[C@H]2O[C@H]2C[C@](C)(N)[C@H](O)[C@H](C)O2)Oc2ccc(cc2Cl)[C@H]1O [Vancomycin] | + | 3reg | Nephrotoxic |  |  | Toxicant |  | Proximal |  |  |  |  |  |
| Gentamicin | + | 3sub | Nephrotoxic |  |  | Toxin |  | Proximal |  |  |  |  |  |
